Test results: patent US4622401A, “Heterocyclic substituted-amino-pyrazolines” (American Cyanamid Company, priority 1982, dated 1986)

Legend:
[1] = reported by Higgs et al., Biochemical Pharmacology 28 1959 (1979); cited from earlier work
[2] = "writhing syndrome" test for analgesic activity
Source text: A method employed for measuring the in vivo activity of the compounds of the present invention is the "writhing syndrome" test for analgesic activity as described by Seigmund, et al., Proc. Soc, Exp. Biol. and Med., 95:729 (1957) with modifications. Representative compounds of the present invention which are active when tested by the "writhing syndrome" test are: 2-(3-Amino-2-pyrazolin-1-yl)benzothiazole 2-(3-Amino-5-methyl-2-pyrazolin-1-yl)benzothiazole

Structure (SMILES) | anti-inflammatory activity [1] | analgesic activity in vivo, "writhing syndrome" test [2]
NC1=NN(c2cccc(C(F)(F)F)c2)CC1 [BW 755C, 3-amino-1-[m-(trifluoromethyl)phenyl]-2-pyrazoline] | anti-inflammatory activity | 
NC1=NN(c2nc3ccccc3s2)CC1 [Example 11, 2-(3-Amino-2-pyrazolin-1-yl)benzothiazole] |  | active
CC1CC(N)=NN1c1nc2ccccc2s1 (stereo not drawn) [Example 13, 2-(3-Amino-5-methyl-2-pyrazolin-1-yl)benzothiazole] |  | active
